One experiment has as its target SGLT2 (Homo sapiens (Human), UniProt P31639). Put plainly: In vitro SGLT2 inhibitory activity: 1-NBDG uptake by CHO-SGLT2 cells. In kind it is cell-based. The following applies: read-out: Inhibition rate of compounds on SGLT2 (%). How it is done: The effect of the compounds on SGLT2-mediated glucose uptake was investigated by establishing an SGLT2 overexpression cell model and using the fluorescent glucose (2-deoxy-1-[(7-nitro-2,1,3-benzoxadiazol-4-yl)amino]-D-glucose, 1-NBDG) tracer method to screen out candidate compounds with SGLT2 inhibitory activity.
The humanized SGLT2 overexpression cells (CHO-SGLT2) constructed from Chinese hamster ovary (CHO) cells were cultured in 1640 medium (Gibco) containing 10% fetal bovine serum (Gibco, 10270), subcultured at a ratio of 1:3, and replaced with new culture medium 3 times every week. Fluorescence detection cell culture plates and other culture flasks were purchased from Corning Company. […] Appropriate amounts of all compounds were weighed, prepared into 100 mM stock solutions with DMSO, and stored at 4° C. in the dark.
Before the 1-NBDG uptake test, CHO-SGLT2 cells were digested and seeded in a 96-well cell culture plate with a cell number of 40,000/well. After the cells were cultured for 48 h, the medium was discarded, and 100 μl of choline buffer was added to each well. After the cells were starved at 37° C. for 30 min, the choline buffer was discarded and 100 μl of the newly prepared Na^+ sodium buffer containing […] 1-NBDG and the test compounds (Compound) was added. The solvent DMSO was used as the negative control (Control) for the test compounds.
The Na^+ sodium buffer without 1-NBDG was used as the blank control (Blank). After 1 h of culture, the incubation solution was discarded. The cells were washed with choline buffer solution 3 times, and then 50 μl of neutral lysate was added to each well to lyse the cells on ice for 10 min. The fluorescence value of each well was detected using a multi-functional microplate reader at […].
At least 3 experimental replicates were set for each compound at indicated concentrations, and the data were expressed as mean±SEM. Uptake amount of 1-NBDG by cells=fluorescence value1-NBDG-fluorescence valueBlank. Inhibition rate on uptake amount of SGLT2 glucose (%)=(uptake amountcontrol−uptake amountcompound)/uptake amountcontrol×100%. Concentration-inhibition rate curves were plotted using Graphpad Prism software, and IC50 values were calculated accordingly.

The test system of a further experiment is Alloxan diabetic mice. Put plainly: Efficacy in Alloxan diabetes model mice. In kind it is in vivo. How it is done: Test Example 3 Research on efficacy of the compounds of the present invention in in vivo anti-Alloxan diabetes model mice
Alloxan diabetes mice were used. Normal ICR mice (male, 22-24 g) were randomly divided into groups including normal group, model group (con), positive control group and test compound groups with four different doses (n=11), and the mice without injection of Alloxan were in a normal control group (n=10).
Mice were administered with drugs by gavage.
Single administration: Mice were fasted for 3 h, and then the fasting blood (0 min) was collected. Then the mice in each group were administered with drugs by gavage. After 1 h, they were administered with a glucose ([…]) solution. Blood was collected at 30 min, 60 min, 120 min, and 180 min after the glucose administration. The blood glucose level was measured using glucose oxidase-peroxidase method, and the area under the blood glucose curve was calculated.
On the 6th day of continuous administration, under the condition of no fasting, blood samples were collected from mice before administration (0 h), 1 h, 2 h, 4 h, 8 h and 24 h after administration to measure blood glucose.
On the 9th day of continuous administration, the mice were fasted for 1 h and then administered with drugs by gavage. An oral glucose tolerance test (OGTT) was performed 1 h after administration.
On the 16th day of continuous administration, under the condition of no fasting, urine samples were collected from mice 1 h after administration to measure the concentration of urine glucose.
On the 22nd day of continuous administration, the mice were fasted for 1 h and then administered with drugs by gavage, and blood samples were collected to measure the fasting blood glucose 1 h after administration.
On the 28th day of continuous administration, under the condition of no fasting, blood samples were collected from mice 1 h after administration to measure the random blood glucose.
On the 32nd day of continuous administration, under the condition of no fasting, blood samples were collected from mice to measure glycosylated hemoglobin (HbA1c).
The data were expressed as mean±SEM (n=10-11). The comparison between multiple groups was performed by one-way analysis of variance, and the comparison between two groups was performed by Dunnett's t test. Statistical graphing was performed using Graphpad Prism software.

Chain of SGLT2 (P31639 whole entry): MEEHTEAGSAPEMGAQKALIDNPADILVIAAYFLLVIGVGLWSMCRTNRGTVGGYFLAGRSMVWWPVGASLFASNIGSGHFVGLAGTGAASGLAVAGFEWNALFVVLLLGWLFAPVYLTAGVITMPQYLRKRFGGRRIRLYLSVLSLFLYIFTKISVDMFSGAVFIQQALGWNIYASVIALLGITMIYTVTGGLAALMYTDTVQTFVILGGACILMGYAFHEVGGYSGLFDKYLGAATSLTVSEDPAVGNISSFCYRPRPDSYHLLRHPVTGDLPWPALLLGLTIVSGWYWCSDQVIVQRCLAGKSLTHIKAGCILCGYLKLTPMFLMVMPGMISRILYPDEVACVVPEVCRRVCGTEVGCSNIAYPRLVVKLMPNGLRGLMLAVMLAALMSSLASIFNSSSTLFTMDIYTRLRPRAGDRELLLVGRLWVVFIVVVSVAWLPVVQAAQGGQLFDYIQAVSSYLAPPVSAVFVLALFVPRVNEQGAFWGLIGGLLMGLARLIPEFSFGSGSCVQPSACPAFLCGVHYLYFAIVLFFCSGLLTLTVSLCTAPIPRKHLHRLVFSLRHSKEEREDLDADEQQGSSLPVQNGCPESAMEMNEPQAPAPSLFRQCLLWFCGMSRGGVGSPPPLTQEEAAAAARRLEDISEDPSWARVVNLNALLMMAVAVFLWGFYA

`CCOc1ccc(Cc2cc([C@@H]3O[C@H](CO)[C@@H](O)[C@H](O)[C@H]3O)ccc2Cl)cc1` [Dapagliflozin, reference compound]: at SGLT2 (compound concentration 1 × 10^−5 mol/L), the inhibition (as a rule, the change of the read-out against control, counted positive when it falls) at 10 µM was 106 ± 4.2%. Moreover, on SGLT2 (compound concentration 1 × 10^−11 mol/L), the inhibition at 10 pM is 1.9 ± 9.2%. Besides, the inhibition at 1 pM at SGLT2 (compound concentration 1 × 10^−12 mol/L) came out at 6.8 ± 5.9%. Besides, the inhibition at 0.05 µM on SGLT2 (compound concentration 5 × 10^−8 mol/L) worked out at 84.3 ± 4%. In addition, on SGLT2 (compound concentration 5 × 10^−9 mol/L), the inhibition at 0.005 µM is 84.8 ± 3.2%. Besides, the inhibition at 0.0005 µM on SGLT2 (compound concentration 5 × 10^−10 mol/L) stood at 60.1 ± 2%. In addition, the inhibition at 50 pM at SGLT2 (compound concentration 5 × 10^−11 mol/L) came to 42 ± 2.8%. Further, the “Concentration of fasting blood glucose, the 9th day” value with Alloxan diabetic mice (2.0 mg/kg, 9th day) amounted to 256.7 ± 14.4 mg/dL. Moreover, the “Concentration of fasting blood glucose, the 22nd day” value in the experiment with Alloxan diabetic mice (2.0 mg/kg, 22nd day) came to 316.5 ± 18.6 mg/dL. The molecule also had a HbA1c in the experiment with Alloxan diabetic mice (2.0 mg/kg, 32nd day) of 6.6 ± 0.5%. Moreover, the “AUC of blood glucose” value is 463.3 ± 28.0 mg·h/dL in the experiment on Alloxan diabetic mice (2.0 mg/kg, OGTT on the 9th day) and 13216 ± 440.8 mg·h/dL in the experiment on Alloxan diabetic mice (2.0 mg/kg, non-fasting, 6th day, 0-24 h). The “Concentration of blood glucose 0 min” value in the experiment with Alloxan diabetic mice (2.0 mg/kg, OGTT on the 9th day, 0 min) worked out at 256.7 ± 14.4 mg/dL. Besides, the “Concentration of blood glucose 30 min” value with Alloxan diabetic mice (2.0 mg/kg, OGTT on the 9th day, 30 min) was found to be 278.3 ± 17.6 mg/dL. The “Concentration of blood glucose 60 min” value in the experiment with Alloxan diabetic mice (2.0 mg/kg, OGTT on the 9th day, 60 min) came out at 227.3 ± 13.5 mg/dL. Besides, in the experiment on Alloxan diabetic mice (2.0 mg/kg, OGTT on the 9th day, 120 min), the “Concentration of blood glucose 120 min” value is 178.9 ± 20.8 mg/dL. In addition, the “Concentration of blood glucose 1 h” value in the experiment with Alloxan diabetic mice (2.0 mg/kg, non-fasting, 6th day, 1 h after administration) is 433.7 ± 19.5 mg/dL. In addition, the “Concentration of blood glucose 2 h” value in the experiment with Alloxan diabetic mice (2.0 mg/kg, non-fasting, 6th day, 2 h after administration) stood at 425.1 ± 22.5 mg/dL. The “Concentration of blood glucose 4 h” value with Alloxan diabetic mice (2.0 mg/kg, non-fasting, 6th day, 4 h after administration) is 343.1 ± 17.8 mg/dL. Moreover, the “Concentration of blood glucose 8 h” value in the experiment with Alloxan diabetic mice (2.0 mg/kg, non-fasting, 6th day, 8 h after administration) is 522.7 ± 34.0 mg/dL. The “Concentration of blood glucose 24 h” value in the experiment on Alloxan diabetic mice (2.0 mg/kg, non-fasting, 6th day, 24 h after administration) is reported as 697.7 ± 17.6 ^ mg/dl. In addition, the “Concentration of blood glucose 0 h” value in the experiment with Alloxan diabetic mice (2.0 mg/kg, non-fasting, 6th day, before administration) is 614.3 ± 9.6 ^ mg/dl. For the same molecule, the “Concentration of blood glucose (random)” value in the experiment with Alloxan diabetic mice (2.0 mg/kg, random blood glucose on the 28th day) amounted to 499.3 ± 13.0 mg/dL. Moreover, in the experiment with Alloxan diabetic mice (6th day, dapagliflozin 2.0 mg/kg, Compound 2 0.25-2.0 mg/kg), the “Duration of hypoglycemic effect” value is “no significant effect after 24 h”.

The values above are taken from patent US20250129055A1, “GLUCOSIDE DERIVATIVE, AND PREPARATION METHOD THEREFOR AND APPLICATION THEREOF” (BEIJING INCREASE INNOVATIVE DRUG CO., LTD., priority 2020, published 2025).
